From paper PMC11169275, “MAL2 reprograms lipid metabolism in intrahepatic cholangiocarcinoma via EGFR/SREBP-1 pathway based on single-cell RNA sequencing” (Cell Death & Disease, 2024) come the findings set out here.

As usually defined, the Kd is a measure of binding affinity in units of concentration.

In the assay the target is T1, MAL2 (GFP-MAL2) (Homo sapiens, UniProt Q969L2).
T1 construct: GFP fusion (GFP-MAL2) transiently expressed in HEK293T, diluted cell lysate, not purified
The assay can be described thus: microscale thermophoresis, GFP-MAL2 in HEK293T lysate. The class given is binding. An excerpt:
microscale thermophoresis, GFP-MAL2 in HEK293T lysate on MAL2 (GFP-MAL2) | only sarizotan could assemble with MAL2, with a dissociation constant (Kd)
(In general: Microscale thermophoresis detects binding through changes in fluorescence in a small temperature gradient.)

T1 sequence (Q969L2 whole entry, the tested form may be a part): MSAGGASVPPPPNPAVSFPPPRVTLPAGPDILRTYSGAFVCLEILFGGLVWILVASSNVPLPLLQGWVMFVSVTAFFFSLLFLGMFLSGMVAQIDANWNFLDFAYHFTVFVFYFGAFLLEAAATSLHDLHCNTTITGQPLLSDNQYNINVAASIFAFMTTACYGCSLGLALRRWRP

With `Fc1ccc(-c2cncc(CNC[C@H]3CCc4ccccc4O3)c2)cc1` [sarizotan], the Kd was 36.1 µM. In other words, the double-digit micromolar range.
